Measurements from patent US10857138B2, “Pharmaceutical compositions comprising antibacterial agents” (WOCKHARDT LIMITED, priority 2014, dated 2020).

Experiments:
[1] = tested on: Klebsiella pneumoniae NCTC 13443 strain producing NDM-1, SHV and TEM beta-lactamase enzymes; assay: Time kill study against K. pneumoniae NCTC 13443; assay type: cell-based; conditions: for Bacterial count (Log10CFU/ml) 2 hours / Bacterial count (Log10CFU/ml) 4 hours / Bacterial count (Log10CFU/ml) 6 hours / Bacterial count (Log10CFU/ml) 8 hours: each agent at 4 mcg/ml, alone or in combination; for Effect on bacterial count when used alone: used alone at 4 μg/ml, throughout the duration of the study
Method: (§1) In a typical time kill study, the freshly grown cultures were diluted to the required cell density (initial starting inoculum) in Cation adjusted Muller Hinton broth medium (BD, USA). The antibacterial agents (either alone or in combination) at the required concentrations were added into the culture-containing medium. The samples were incubated under shaking condition (120 rpm) at 37° C. Enumeration of viable bacterial count was done every 2 hour by diluting in normal saline and plating on to the Tryptic Soya Agar plates (BD, USA). The plates were incubated for 24 hours to arrive at the viable bacterial count. […] In general, the decrease of 1 Log CFU/ml, corresponds to 90% killing of bacteria. Similarly, 2 Log CFU/ml reductions indicates to 99% killing of bacteria and 3 Log CFU/ml reductions is equal to 99.9% killing of bacteria.
(§2) The assay without any antibacterial agent was taken as control.

[2] = tested on: Klebsiella pneumoniae B 88 strain producing NDM-1, SHV, TEM and CTXM beta-lactamase enzymes; assay: Time kill study against K. pneumoniae B 88; assay type: cell-based; set-up: Effect on bacterial count when used alone: dose or concentration left out as unconfirmed; conditions: for Bacterial count (Log10CFU/ml) 2 hours / Bacterial count (Log10CFU/ml) 4 hours / Bacterial count (Log10CFU/ml) 6 hours / Bacterial count (Log10CFU/ml) 8 hours: each agent at 4 mcg/ml, alone or in combination; for Effect on bacterial count when used alone: used alone at 4 mcg/ml, throughout the duration of the study
Method: as §1, §2

Row | SMILES | Bacterial count (Log10CFU/ml) 2 hours [1] [Log10CFU/ml] | Bacterial count (Log10CFU/ml) 4 hours [1] [Log10CFU/ml] | Bacterial count (Log10CFU/ml) 6 hours [1] [Log10CFU/ml] | Bacterial count (Log10CFU/ml) 8 hours [1] [Log10CFU/ml] | Effect on bacterial count when used alone [1] | Bacterial count (Log10CFU/ml) 2 hours [2] [Log10CFU/ml] | Bacterial count (Log10CFU/ml) 4 hours [2] [Log10CFU/ml] | Bacterial count (Log10CFU/ml) 6 hours [2] [Log10CFU/ml] | Bacterial count (Log10CFU/ml) 8 hours [2] [Log10CFU/ml] | Effect on bacterial count when used alone [2]
1 | O=C1N2C[C@@H](CC[C@H]2c2nnc(CC3CNC3)o2)N1OS(=O)(=O)O [Compound D] | 8.3 | 8.55 | 8.95 | 9.2 | not effective to decrease the bacterial count | 8.05 | 8.3 | 8.7 | 8.8 | not effective to decrease the bacterial count
2 | O=C1N2C[C@@H](CC[C@H]2c2nnc([C@@H]3CCCN3)o2)N1OS(=O)(=O)O [Compound J, trans-sulphuric acid mono-[2-(5-((S)-pyrrolidin-2-yl)-[1,3,4]-oxadiazol-2-yl)-7-oxo-1,6-diazabicyclo[3.2.1]-octan-6-yl] ester] | 8.35 | 8.5 | 8.8 | 9.2 | not effective to decrease the bacterial count | 8.35 | 8.5 | 8.8 | 9.2 | not effective to decrease the bacterial count
